Experimental data: patent US8518889B2, “Method of treating cancer with antibodies against long-form leukotriene B4 receptor BLT2” (Korea University Research & Business Foundation, priority 2007, dated 2013)

Columns and labels:
LNCaP cells [1] = assay: cell counting with trypan blue; type: cell-based, human; conditions: 1 μM and 5 μM, serum free RPMI 1640
Procedure: (§1) The effect of LY255283 was observed by counting of cell number. The cells were grown in 6-well cluster dishes to 70% confluence with 10% FBS-supplemented medium. At day 0, the medium was replaced with serum free RPMI 1640 and cells were stimulated with DMSO or 1 μM and 5 μM LY255283. The cells were harvested at various intervals. Cells were washed with PBS and collected by brief trypsinization. Total cell number was determined by counting each sample in duplicate with a hemocytometer using trypan blue dye. The cells treated with LY255283 in serum free RPM11640 were harvested at various intervals. […] In contrast, PWR-1 E cells which expressed few level of BLT2 were not affected by LY255283.

PWR-1E cells [2] = assay: cell counting with trypan blue; type: cell-based; conditions: 1 μM and 5 μM, serum free RPMI 1640
Procedure: as §1

LNCaP cells [3] = assay: cell cycle analysis (PI, flow cytometry); type: cell-based, human; conditions: 5 μM, 48 hr
Procedure: (§2) After LNCaP cells and PWR-1E cells were treated with 5 μM LY255283 for 48 hr, the cells were fixed with 70% ethanol and stained with Pl. Cell cycle was analyzed using flow cytometry. The cells grown in 6-well cluster dishes were stimulated with 5 μM LY255283 for 48 h in serum free RPMI 1640. The cells which were collected by brief trypsinization were fixed for 12 hr with 70% ethanol at 4° C. The cells were resuspended in PBS containing RNase A (100 μg/ml) and incubated for 30 min at 37° C. The cells were stained with propidium iodide (50 μg/ml) (Sigma). Acquisition and analysis was performed by FACS using Cell Quest Alias software (BD Bioscience).

PWR-1E cells [4] = assay: cell cycle analysis / apoptosis measurement; type: cell-based; conditions: 5 μM, 48 hr
Procedure: as §2

AsPC-1 cells = assay: MTT assay, cell viability; type: cell-based, human; conditions: 2.5, 5 and 10 μM, 48 h
Procedure: (§3) To investigate the effect of the selective BLT2 antagonist LY255283 on pancreatic cancer cell proliferation and survival, cell viability was determined by MTT assay after Panc-1 and AsPC-1 cells were exposed to LY255283 for 48 hr.
(§4) Two human pancreatic cancer cell lines were used: Panc-1 and AsPC-1. Panc-1 cells were grown in DMEM, and AsPC-1 cells were grown in RPMl 1640.
(§5) Cells were plated in 96-well plates at a concentration of 10,000 cells/well. After incubation for 24 h, cells were serum-starved for 3 h, and then various concentrations (2.5 μM, 5 μM and 10 μM) of LY255283 were added. At the end of experiments, 25μ! of a 5 mg/ml MTT solution, diluted in PBS, was added into the 96-well plates. The plates were incubated at 37° C. in 5% CO2 atmosphere for 3 hr, allowing viable cells to reduce the yellow tetrazolium salt (MTT) into dark blue formazan crystals. At the end of the 3 h incubation, the MTT solution was removed and 100 μl of dimethyl sulfoxide was added to dissolve the formazan crystals. To ensure complete dissolution of the formazan crystals, the plates were vortexed gently at low speed for 10 min. The absorbance in individual wells was determined at 540 nm by a microplate reader.

Panc-1 cells = assay: MTT assay, cell viability; type: cell-based, human; conditions: 2.5, 5 and 10 μM, 48 h
Procedure: as §3, §4, §5

Rat2-BLT2 cells = assay: experimental metastasis assay, lung metastasis driven by BLT2; type: in vivo, nude mice; conditions: intraperitoneal 3 and 5 days after cell injection, 21 days
Procedure: All experimental animals used in this study were treated according to guidelines approved by the Institutional Animal Care and Use Committee of Korea University. Female nude mice (Charles River, Wilmington, Mass.), four-weeks-old at the time of injection, were used in the experimental metastasis assay. Rat-2, Rat2-HO6, and Rat2-BLT2 cells (5×10^5 cells) were prepared for injection from cultures in logarithmic growth at the time of harvest. The cells were briefly treated with 0.025% trypsin and 0.1% EDTA in Hanks' balanced salt solution and quickly removed from trypsin by centrifugation, resuspended in saline containing LTB4, and injected within 1 hr in 0.1 ml into the lateral tail vein with a 26-gauge needle. For inhibitor experiments, U75302 and LY255283 (0.25 mg/kg for BLT1 antagonist and 2.5 mg/kg for BLT2 antagonist) was injected intraperitoneal ˜3 and 5 days after injection of cells that were pretreated with inhibitors. […]
In vivo lung metastasis driven by H-Ras^V12 (panel B of FIG. 2a) or BLT2 (panel C of FIG. 2a) was reduced by BLT2 inhibition (LY255283) based on the macroscopic and histologic appearance of lung. […] Mice were euthanized 21 days after cell injection, and the number of lung metastasis nodules and weight of lung was analyzed in each group. […] Metastasis survival was analyzed in Kaplan-Meyer plots.

CCc1cc(C(C)=O)c(O)cc1OCCCCCC(C)(C)c1nnn[nH]1 [LY255283, 1-[5-ethyl-2-hydroxy-4-[[6-methyl-6-(1H-tetrazol-5-yl)heptyl]oxy]phenyl]-ethanone]
number of LNCaP cells (LNCaP cells [1]): significantly reduced
number of PWR-1E cells (PWR-1E cells [2]): not affected
sub-G1 population (LNCaP cells [3]): increased population of cells with sub-GI DNA content
apoptosis in prostate normal cells (PWR-1E cells [4]): but not prostate normal cells
cell viability (MTT), AsPC-3 as printed (AsPC-1 cells): diminished cell viability in dose-dependent manner
cell viability (MTT), Panc-1 (Panc-1 cells): diminished cell viability in dose-dependent manner

CCCCC/C=C\C[C@@H](O)/C=C/c1cccc(C[C@@H](O)CCCCO)n1 [U75302]
lung metastasis driven by BLT2 (Rat2-BLT2 cells): caused no suppression on metastasis
